Test results from patent US8410150B2, “Inhibitors of carnitine palmitoyltransferase and treating cancer” (University Health Network, priority 2007, dated 2013).

Key:
Test in all cases: Cell growth inhibition, SRB assay
Type in all cases: cell-based, human
COLO-205 = settings: Colon COLO-205, 3% FBS
Protocol: (§1) Compounds were dissolved in DMSO and further diluted in cell culture medium for the experiments performed. Cells were seeded into 96-well plates with 1,500-5,000 cells/well according to cell growth rate. After 24 h, DMEM medium containing 10% FBS were changed to DMEM containing 3% FBS for cancer cells and additional 3% FBS were added into the culture medium for normal cells. The compound was added into the cell culture at the indicated concentrations, and the final concentration of DMSO was adjusted to a final concentration of 0.1%. Cells were subjected to either normoxic condition (20% O2) for 6 days or hypoxic condition (0.2% O2) for 2 days and then transferred to normoxic condition for 4 days. Cell viability was assessed by Sulforhodamine B (SRB) assay at Day 6.
(§2) Sulforhodamine B (SRB) (Sigma, Oakville, ON, Canada) is a water-soluble dye that binds to the basic amino acids of the cellular proteins. Thus, colorimetric measurement of the bound dye provides an estimate of the total protein mass that is related to the cell number. The cells were fixed in situ by gently aspirating off the culture media and adding 50 ul of cold 10% trichloroacetic Acid (TCA) per well and incubated at 4° C. for 30-60 min. The plates were washed five times with water and allowed to air dry for 5 min. 50 ul of 0.4% (w/v) SRB dissolved in 1% (v/v) acetic acid were added into each well, plates were then incubated at RT for 30 min for staining, washed four times with 1% acetic acid to remove any unbound dye and then allowed to air dry for 5 min. Stain was solubilized with 100 ul of 10 mM Tris pH 10.5 per well. Absorbance was read at 570 nm on a spectrophotometer. GI50 (compound concentration required for 50% of growth inhibition) was calculated using GraphPad Prism 4.0 software (GraphPad Software, Inc., San Diego, Calif., USA).
(§3) Cell viability of various cell lines treated with 3-carboxy-N,N,N-trimethyl-2-pentadecanamidopropan-1-aminium (“nPAC”) and compound of Examples S7, S63, S66, S90, S89, S67, S75 and S10 was also assessed in a manner as described above in Example 5.

HCT-15 = settings: Colon HCT-15, 3% FBS
Protocol: as §1, §2, §3

SW620 = settings: Colon SW620, 3% FBS
Protocol: as §1, §2, §3

SW480 = settings: Colon SW480, 3% FBS
Protocol: as §1, §2, §3

Caov-3 = settings: Ovarian Caov-3, 3% FBS
Protocol: as §1, §2, §3

Hs578T = settings: Breast Hs578T, 3% FBS
Protocol: as §1, §2, §3

A54 = settings: Lung A54, 3% FBS
Protocol: as §1, §2, §3

MDA-231 = settings: Breast MDA-231, 3% FBS
Protocol: as §1, §2, §3

H358 = settings: Lung H358, 3% FBS; read-out: GI50
Protocol: (§4) Human cancer cells (MCF-7, H358, H460, HCT116 p53^+/+, HCT116 p53^−/−, A172, PC-3, DU-145 and SW626) were maintained in DMEM medium containing 10% Fetal Bovine Serum (FBS) (Invitrogen, Burlington, ON, Canada) and normal cells HMEC, 184A1, NHBE and PrEC were cultured in MEGM, MEGM plus transferring and cholera toxin, BEGM and PrEGM supplemented with various growth factors (Cambrex, Charles city, IA, USA), respectively.
as §1, §2, §3

A172 = settings: Brain A172, 3% FBS; read-out: GI50
Protocol: as §4, §1, §2, §3

SW626 = settings: Ovarian SW626, 3% FBS; read-out: GI50
Protocol: as §4, §1, §2, §3

PC-3 = settings: Prostate PC-3, 3% FBS; read-out: GI50
Protocol: as §4, §1, §2, §3

MCF-7 = settings: Breast MCF-7, 3% FBS; read-out: GI50
Protocol: as §4, §1, §2, §3

3-carboxy-N,N,N-trimethyl-2-pentadecanamidopropan-1-aminium [nPAC, reference compound]
GI50 (COLO-205): 400 nM
GI50 (HCT-15): 1500 nM
GI50 (SW620): 500 nM
GI50 (SW480): 400 nM
GI50 (Caov-3): 1300 nM
GI50 (Hs578T): 19 µM
GI50 (A54): 20 µM
GI50 (MDA-231): 10 µM
GI50 (H358): 700 nM
GI50 (A172): 3.2 µM
GI50 (SW626): 1200 nM
GI50 (PC-3): 2500 nM
GI50 (MCF-7): 6.6 µM
